Measured values as given in patent US20220273713A1, “METHOD OF INHIBITING OR ACTIVATING GAMMA DELTA T CELLS” (The University of Melbourne, priority 2019, published 2022).
“And” between values parts separate entries of the source, which are not always exact repeats. Equal entries are not always repeated.

How the values were obtained:
[1] = target: G115 Vγ9Vδ2+ γδTCR, wild type, on cells; test: flow cytometry, tetramer-PE versus anti-CD3ε-APC on Jurkat G115 Vγ9Vδ2+ γδTCR cells
Vγ9Vδ2 cells = test: Luminex (Vγ9Vδ2): cytokine/chemokine secretion by pre-expanded Vγ9Vδ2 cells; type: cell-based, human; conditions: 16 hrs, antibodies 10 μg/ml, Zoledronic acid 4 μM, HMBPP 0.5 ng/ml, duplicates, 0 set to 0.1;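 further: Vγ9Vδ2 cells purified from PBMC, activated 48 h with CD3 and CD28 plus IL-2, expanded 14 days in IL-2, then thawed and rested overnight in IL-2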
[2] = tested on: in vitro pre-expanded CD3+Vδ2+ γδ T cells; test: HMBPP or anti-CD3/anti-CD28 activation of purified in vitro-expanded Vδ2+ T cells ± neutralizing anti-BTN2A1 mAb; type: cell-based, human; conditions: HMBPP 0.5 ng/ml, 10 μg/ml neutralizing anti-BTN2A1 mAb, no APCs
Protocol: CD25 expression was determined by flow cytometry, and IFN-γ concentration was determined by cytometric bead array (BD Bioscience) as per manufacturer instructions.

γδ T cells = test: Identification of BTN2A1 agonistic antibodies: CD25 and interferon γ of expanded γδ T cells; type: cell-based, human; conditions: 10 μg/ml antibody overnight, vs isotype control BM4
Protocol: In some experiments γδ T cells were enriched by MACS using PE-Cy7-conjugated anti-γδTCR followed by anti-phycoerythrin-mediated magnetic bead purification (Miltenyi Biotec). After enrichment CD3+Vδ2+ γδ T cells were further purified by sorting using an Aria III (BD). Enriched γδ T cells were stimulated in vitro for 48 h with plate-bound anti-CD3ε (OKT3, 10 ug/ml, Bio-X-Cell), soluble anti-CD28 (CD28.2, 1 ug/ml, BD Pharmingen), phytohemagglutinin (0.5 μg/ml, Sigma), IL-15 (50 ng/ml), and recombinant human IL-2 (100 U/ml, PeproTech), followed by maintenance with IL-2 and IL-15 for 14-21 d. Cells were cultured in complete medium consisting of a 50:50 (v/v) mixture of RPMI-1640 and AIM-V (Invitrogen) supplemented with 10% (v/v) FCS (JRH Biosciences), penicillin (100 U/ml), streptomycin (100 μg/ml), Glutamax (2 mM), sodium pyruvate (1 mM), nonessential amino acids (0.1 mM), and HEPES buffer (15 mM), pH 7.2-7.5 (all from Invitrogen Life Technologies), plus 50 μM 2-mercaptoethanol (Sigma-Aldrich).
The inventors screened the panel of antibodies specific for BTN2A1, as described above, to identify those able to agonise BTN2A1. The inventors assessed the ability of anti-BTN2A1 antibodies to activate γδ T cells. The inventors assessed upregulation of CD25 on the surface of previously expanded γδ T cells following culturing the cells with 10 μg/ml anti-BTN2A1 antibodies or isotype control antibody (BM4) overnight.
The inventors additionally measured levels of interferon γ secreted by γδ T cells following culture in the presence of 10 μg/ml anti-BTN2A1 antibodies or isotype control antibody (BM4) overnight. Interferon γ secretion is another indicator of TCR-dependent activation.

[3] = γδT cells from patient 1 (melanoma patient)

Work on “BTN2A1 tetramer-PE (biotinylated BTN2A1 ectodomain tetramerized with streptavidin-PE) (ligand)” yielded a cells in the BTN2A1 tetramer+ gate (%) [1] of 100%.

With “Glycosylated BTN2A1 tet. (simple glycans) (from UniProt Q7KYR7) (ligand)” the cells in the BTN2A1 tetramer+ gate (%) [1] was 100%.

O=P(O)(O)C(O)(Cn1ccnc1)P(=O)(O)O [Zoledronate, zoledronate, reference compound] was tested, and the GMCSF (Vγ9Vδ2 cells; γδT cells from a healthy donor) was 254.29 pg/mL and 268.62 pg/mL, the ICAM-1 (Vγ9Vδ2 cells; γδT cells from a healthy donor) was 490.35 pg/mL and 504.11 pg/mL and the IFNγ (Vγ9Vδ2 cells; γδT cells from a healthy donor) was 58.38 pg/mL and 58.97 pg/mL. The IL-4 (Vγ9Vδ2 cells; γδT cells from a healthy donor) was 0.1 pg/mL, the IL-8 (Vγ9Vδ2 cells; γδT cells from a healthy donor) was 0.1 pg/mL and the IL-13 (Vγ9Vδ2 cells; γδT cells from a healthy donor) was 5.22 pg/mL and 4.43 pg/mL. For the same molecule, the IL-17A (Vγ9Vδ2 cells; γδT cells from a healthy donor) was 0.1 pg/mL, the MIP-1a (Vγ9Vδ2 cells; γδT cells from a healthy donor) was 121.61 pg/mL and 125.27 pg/mL and the MIP-1b (Vγ9Vδ2 cells; γδT cells from a healthy donor) was 1280.91 pg/mL and 1334.19 pg/mL. For the same molecule, the TNFα (Vγ9Vδ2 cells; γδT cells from a healthy donor) was 13.03 pg/mL and 13.02 pg/mL, the sE-selectin (Vγ9Vδ2 cells; γδT cells from a healthy donor) was 190.9 pg/mL and the sP-Selectin (Vγ9Vδ2 cells; γδT cells from a healthy donor) was 200.54 pg/mL and 313.85 pg/mL. The GMCSF (Vγ9Vδ2 cells; [3]) was 650.17 pg/mL and 619.93 pg/mL, the ICAM-1 (Vγ9Vδ2 cells; [3]) was 968.87 pg/mL and 888.51 pg/mL and the IFNγ (Vγ9Vδ2 cells; [3]) was 175.86 pg/mL and 171.42 pg/mL. The IL-4 (Vγ9Vδ2 cells; [3]) was 7.43 pg/mL and 7.68 pg/mL, the IL-8 (Vγ9Vδ2 cells; [3]) was 0.1 pg/mL and the IL-13 (Vγ9Vδ2 cells; [3]) was 235.43 pg/mL and 219.81 pg/mL. For the same molecule, the IL-17A (Vγ9Vδ2 cells; [3]) was 3.5 pg/mL and 4.08 pg/mL, the MIP-1a (Vγ9Vδ2 cells; [3]) was 274.25 pg/mL and 273.85 pg/mL and the MIP-1b (Vγ9Vδ2 cells; [3]) was 5061.49 pg/mL and 4756.68 pg/mL. For the same molecule, the TNFα (Vγ9Vδ2 cells; [3]) was 105.84 pg/mL and 102.44 pg/mL, the sE-selectin (Vγ9Vδ2 cells; [3]) was 259.01 pg/mL and 287.88 pg/mL and the sP-Selectin (Vγ9Vδ2 cells; [3]) was 1239.34 pg/mL and 1299.54 pg/mL.

B1: clone 236: neutralizing anti-BTN2A1 mAb; VH SEQ ID NO: 116, VL SEQ ID NO: 117 (antibody, V domains shown)
VH: EVQLLESGGGLVQPGGSLRLSCAASGFTFSHYSMSWVRQAPGKGLEWVSGISSSGGFTPYADSVKGRFTISRDNSKNTLYLQMNSLRAEDTAVYYCTGGSGFDIWGQGTMVTVSS
VL: DIQMTQSPSTLSVSVGDRVTITCRASQTISSWLAWFQQKPGQAPKLLIYRASTLETGVPSRFSGSESGTTFTLTINGLQPDDLATYYCQQYATFPWTFGQGTKVEVK
modifications: amino acid sequence of clone 236 VH; amino acid sequence of clone 236 VL
For B1, the “HMBPP-induced activation (CD25 upregulation, IFN-γ production)” value (shortened to “HMBPP-induced activation”) [2] was “failed to upregulate CD25 and produce IFN-γ”.

B2: clone 266: neutralizing anti-BTN2A1 mAb; VH SEQ ID NO: 124, VL SEQ ID NO: 125 (antibody, V domains shown)
VH: EVQLLESGGGLVQPGGSLRLSCAASGFTFSMYTMMWVRQAPGKGLEWVSGIGSSGGHTKYADSVKGRFTISRDNSKNTLYLQMNSLRAEDTAVYYCARYGHTFETWGQGTMVTVSS
VL: QYELTQPPSASGTPGQRVTISCSGSSSNIGSNYVYWYQQLPGTAPKLLIYRNNQRPSGVPDRFSGSKSGTSASLAISGLRSEDEADYYCAAWDDSLSGSYVFGTGTKVTVL
modifications: amino acid sequence of clone 266 VH; amino acid sequence of clone 266 VL
With B2 the “HMBPP-induced activation” value [2] was “failed to upregulate CD25 and produce IFN-γ”.

B3: clone 267: anti-BTN2A1 mAb, partial inhibitor; VH SEQ ID NO: 132, VL SEQ ID NO: 133 (antibody, V domains shown)
VH: EVQLLESGGGLVQPGGSLRLSCAASGFTFSTYVMYWVRQAPGKGLEWVSSISPSGGLTVYVDSVKGRFTISRDNSKNTLYLQMNSLRAEDTAVYYCARVGYSSSDIWGQGTMVTVSS
VL: QYELTQPHSVSESPGKTVTISCTRNGGSIASNAVQWYQQRPGSAPITVIYDDSQRPSGVPDRFSGSIDSSSNTASLTISGLTTEDEADYYCLSFDTTSQIFGGGTKLTVL
modifications: amino acid sequence of clone 267 VH; amino acid sequence of clone 267 VL
With B3 the “HMBPP-induced activation” value [2] was “only a partial inhibitor”.

B4: antibody 244: agonistic anti-BTN2A1 antibody; VL SEQ ID NO: 140, VH SEQ ID NO: 144 (antibody, V domains shown)
VH: EVQLLESGGGLVQPGGSLRLSCAASGFTFSEYSMSWVRQAPGKGLEWVSRIGPSGGGTVYADSVKGRFTISRDNSKNTLYLQMNSLRAEDTAMYYCARLGRGAVAELDYWGQGTLVTVSS
VL: QSVLTQPHSVSESPGKTVTISCTRSSGRIGSNYVHWYQHLPGRAPKLLIYGNSNRPSGVPDRFSGSKSGTSASLAITGLQADDEADYYCQTYDNNVWVFGGGTKLTVL
modifications: amino acid sequence of the VH of antibody 244; amino acid sequence of the VL of antibody 244
B4 was tested, and the “level of secreted interferon γ” value (γδ T cells) was “increase the level of secreted interferon γ” and the “percentage of γδ T cells expressing CD25” value (γδ T cells) was “increase the percentage of γδ T cells expressing CD25”.
